Laboratory results from US12516038B2, “Inhibitors of antigen presentation by HLA-DR” (Janssen Pharmaceutica NV, priority 2020, dated 2026).

Columns and labels:
[1] = molecular target: HLA-DRB1*0401 (Homo sapiens (Human), UniProt P01903+P01911, A100K/A169T/DEL228-266/F76Y/I96L/K127E/L162R/M171V/N62H/P40V/Q125Y/R42H/S133A/S149N/S66Y/V115G/V209L/W38E); test: HLA-DR4 HTRF assay; format: binding; details: inhibition of loading of Alexa Fluor 647-labeled Cit-CII peptide onto HLA-DR4 (CLIP cleaved)
Method in brief: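 HLA-DRB1*04:01 construct (α/β fused to human Fc, CLIP pre-cleaved by HRV3C overnight at 4° C) at 3 nM was preincubated 45 min with compound and 1 nM anti-Fc-Tb donor, then 40 nM Alexa647-Cit-CII1236-1249 peptide added. After 90 min at 37° C, the 665/620 nm HTRF ratio gave % inhibition; IC50 by nonlinear regression.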

[2] = system: HLA-DR4 restricted mouse T cell hybridoma line (DR4.CII.36.8) with HLA-DRB1*04:01-expressing Boleth cells; test: HLA-DR4-restricted peptide-specific T cell-based assay (hybridoma assay); details: Mus musculus, T-cell, 6 h, inhibition of IL-2 production, CII259-273 peptide presented by Boleth cells
Method in brief: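 IC50 values derive from 4-parameter logistic fits of IL-2 AlphaLISA signal over 8-point duplicate titrations. Compound and HLA-DRB1*04:01 Boleth APCs were preincubated 1 h, 37° C., before adding CII259-273-restricted DR4.CII.36.8 hybridoma cells with peptide for 6 h at 37° C., in DMEM/1% FCS.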

For `Cc1c(O[C@@H](c2ccc(C(N)=O)cc2)c2ccnc(CCC(=O)O)c2)ccc2c1OCCC2=O` (single isomer, unassigned) [Example 87b], the IC50 [1] was 510 nM and the IC50 [2] was over 15000 nM.

`Cc1cc2c(c(C)c1O[C@@H](c1ccc(F)cc1)c1ccc(C(N)=O)cc1)OCCC2=O` (single isomer, unassigned) [Example 90a, (*R)-4-(((6,8-dimethyl-4-oxochroman-7-yl)oxy)(4-fluorophenyl)methyl)benzamide] was tested, and the IC50 [1] was 520 nM and the IC50 [2] was over 15000 nM.

`Cc1cc2c(c(C)c1O[C@H](c1ccc(F)cc1)c1ccc(C(N)=O)cc1)OCCC2=O` (single isomer, unassigned) [Example 90b, (*S)-4-(((6,8-dimethyl-4-oxochroman-7-yl)oxy)(4-fluorophenyl)methyl)benzamide] gave an IC50 [1] of 590 nM and an IC50 [2] of 7400 nM.

`Cc1c(O[C@H](c2ccc(C(N)=O)cc2)c2ccc(F)c(F)c2)c(F)cc2c1OCCC2=O` (single isomer, unassigned) [Example 91a, (*R)-4-((3,4-difluorophenyl)((6-fluoro-8-methyl-4-oxochroman-7-yl)oxy)methyl)benzamide] was tested, and the IC50 [1] was 550 nM and the IC50 [2] was 7800 nM.

`Cc1c(O[C@@H](c2ccc(C(N)=O)cc2)c2ccc(F)c(F)c2)c(F)cc2c1OCCC2=O` (single isomer, unassigned) [Example 91b, (*S)-4-((3,4-difluorophenyl)((6-fluoro-8-methyl-4-oxochroman-7-yl)oxy)methyl)benzamide] was tested, and the IC50 [1] was 350 nM and the IC50 [2] was over 15000 nM.

`Cc1c(O[C@@H](c2ccc(C(N)=O)cc2)c2cccc(C#N)c2)c(F)cc2c1OCCC2=O` (single isomer, unassigned) [Example 92b, (*S)-4-((3-cyanophenyl)((6-fluoro-8-methyl-4-oxochroman-7-yl)oxy)methyl)benzamide] showed an IC50 [1] of 190 nM and an IC50 [2] of over 15000 nM.

For `Cc1c(O[C@H](c2ccc(C(N)=O)cc2)c2ccc(S(C)(=O)=O)cc2)c(F)cc2c1OCCC2=O` (single isomer, unassigned) [Example 93a, (*R)-4-(((6-fluoro-8-methyl-4-oxochroman-7-yl)oxy)(4-(methylsulfonyl)phenyl)methyl)benzamide], the IC50 [1] was 190 nM and the IC50 [2] was 6000 nM.

Work on `Cc1c(O[C@@H](c2ccc(C(N)=O)cc2)c2ccc(S(C)(=O)=O)cc2)c(F)cc2c1OCCC2=O` (single isomer, unassigned) [Example 93b, (*S)-4-(((6-fluoro-8-methyl-4-oxochroman-7-yl)oxy)(4-(methylsulfonyl)phenyl)methyl)benzamide] yielded an IC50 [1] of 280 nM and an IC50 [2] of 14000 nM.

With `Cc1c(O[C@H](c2ccncc2)c2ccc(C(N)=O)c(F)c2)c(F)cc2c1OCCC2=O` (single isomer, unassigned) [Example 95a, (*R)-2-fluoro-4-(((6-fluoro-8-methyl-4-oxochroman-7-yl)oxy)(pyridin-4-yl)methyl)benzamide] the IC50 [1] was 220 nM and the IC50 [2] was 230 nM.

With `Cc1c(O[C@@H](c2ccncc2)c2ccc(C(N)=O)c(F)c2)c(F)cc2c1OCCC2=O` (single isomer, unassigned) [Example 95b, (*S)-2-fluoro-4-(((6-fluoro-8-methyl-4-oxochroman-7-yl)oxy)(pyridin-4-yl)methyl)benzamide] the IC50 [1] was 220 nM and the IC50 [2] was 1100 nM.

`Cc1c(O[C@H](c2ccncc2)c2cccc(F)c2)c(F)cc2c1OCCC2=O` (single isomer, unassigned) [Example 96a, (*R)-6-fluoro-7-((3-fluorophenyl)(pyridin-4-yl)methoxy)-8-methylchroman-4-one] gave an IC50 [1] of 300 nM and an IC50 [2] of 11000 nM.

`Cc1c(O[C@@H](c2ccncc2)c2cccc(F)c2)c(F)cc2c1OCCC2=O` (single isomer, unassigned) [Example 96b, (*S)-6-fluoro-7-((3-fluorophenyl)(pyridin-4-yl)methoxy)-8-methylchroman-4-one] showed an IC50 [1] of 470 nM and an IC50 [2] of over 15000 nM.

In the case of `COc1ccc([C@H](Oc2c(F)cc3c(c2C)OCCC3=O)c2ccncc2)cc1F` (single isomer, unassigned) [Example 97a, (*R)-6-fluoro-7-((3-fluoro-4-methoxyphenyl)(pyridin-4-yl)methoxy)-8-methylchroman-4-one], the IC50 [1] is reported as 410 nM and the IC50 [2] is reported as 5200 nM.

Compound `COc1ccc([C@@H](Oc2c(F)cc3c(c2C)OCCC3=O)c2ccncc2)cc1F` (single isomer, unassigned) [Example 97b, (*S)-6-fluoro-7-((3-fluoro-4-methoxyphenyl)(pyridin-4-yl)methoxy)-8-methylchroman-4-one] has an IC50 [1] of 380 nM and an IC50 [2] of over 15000 nM.

Compound `NC(=O)c1ccc([C@H](Oc2ccc3c(c2)OCCC3=O)c2ccncc2)c2ccccc12` (single isomer, unassigned) [Example 98a, (*R)-4-(((4-oxochroman-7-yl)oxy)(pyridin-4-yl)methyl)-1-naphthamide] has an IC50 [1] of 9000 nM and an IC50 [2] of 5900 nM.

`NC(=O)c1ccc([C@@H](Oc2ccc3c(c2)OCCC3=O)c2ccncc2)c2ccccc12` (single isomer, unassigned) [Example 98b, (*S)-4-(((4-oxochroman-7-yl)oxy)(pyridin-4-yl)methyl)-1-naphthamide] showed an IC50 [1] of 10000 nM and an IC50 [2] of over 15000 nM.

`CCc1cc(O[C@H](c2ccncc2)c2ccc(C(N)=O)cc2)cc2c1C(=O)CCO2` (single isomer, unassigned) [Example 99b, (*S)-4-(((5-ethyl-4-oxochroman-7-yl)oxy)(pyridin-4-yl)methyl)benzamide] showed an IC50 [1] of over 89000 nM and an IC50 [2] of 5500 nM.

In the case of `COc1c(O[C@@H](c2ccncc2)c2ccc(C(N)=O)cc2)ccc2c1OCCC2=O` (single isomer, unassigned) [Example 100a, (*R)-4-(((8-methoxy-4-oxochroman-7-yl)oxy)(pyridin-4-yl)methyl)benzamide], the IC50 [1] is reported as 6400 nM and the IC50 [2] is reported as 7600 nM.

For `COc1c(O[C@H](c2ccncc2)c2ccc(C(N)=O)cc2)ccc2c1OCCC2=O` (single isomer, unassigned) [Example 100b, (*S)-4-(((8-methoxy-4-oxochroman-7-yl)oxy)(pyridin-4-yl)methyl)benzamide], the IC50 [1] was 9000 nM and the IC50 [2] was 2300 nM.

`N#Cc1cc(O[C@@H](c2ccncc2)c2ccc(C(N)=O)cc2)cc2c1C(=O)CCO2` (single isomer, unassigned) [Example 101a, (*R)-4-(((5-cyano-4-oxochroman-7-yl)oxy)(pyridin-4-yl)methyl)benzamide] showed an IC50 [1] of 960 nM and an IC50 [2] of over 15000 nM.

Work on `N#Cc1cc(O[C@H](c2ccncc2)c2ccc(C(N)=O)cc2)cc2c1C(=O)CCO2` (single isomer, unassigned) [Example 101b, (*S)-4-(((5-cyano-4-oxochroman-7-yl)oxy)(pyridin-4-yl)methyl)benzamide] yielded an IC50 [1] of 1300 nM and an IC50 [2] of 12000 nM.

For `COc1ccc([C@@H](Oc2c(F)cc3c(c2C)OCCC3=O)c2ccncc2)cc1` (single isomer, unassigned) [Example 103a, (*R)-6-fluoro-7-((4-methoxyphenyl)(pyridin-4-yl)methoxy)-8-methylchroman-4-one], the IC50 [1] was 2900 nM and the IC50 [2] was 15000 nM.

With `COc1ccc([C@H](Oc2c(F)cc3c(c2C)OCCC3=O)c2ccncc2)cc1` (single isomer, unassigned) [Example 103b, (*S)-6-fluoro-7-((4-methoxyphenyl)(pyridin-4-yl)methoxy)-8-methylchroman-4-one] the IC50 [1] was 2800 nM and the IC50 [2] was 15000 nM.

Work on `Cc1c(O[C@@H](c2ccncc2)c2ccc(S(C)(=O)=O)cc2)c(F)cc2c1OCCC2=O` (single isomer, unassigned) [Example 104a, (*R)-6-fluoro-8-methyl-7-((4-(methylsulfonyl)phenyl)(pyridin-4-yl)methoxy)chroman-4-one] yielded an IC50 [1] of 290 nM and an IC50 [2] of 3900 nM.

Compound `Cc1c(O[C@H](c2ccncc2)c2ccc(S(C)(=O)=O)cc2)c(F)cc2c1OCCC2=O` (single isomer, unassigned) [Example 104b, (*S)-6-fluoro-8-methyl-7-((4-(methylsulfonyl)phenyl)(pyridin-4-yl)methoxy)chroman-4-one] has an IC50 [1] of 230 nM and an IC50 [2] of 1100 nM.

For `Cc1c(O[C@H](c2ccncc2)c2cccc(S(C)(=O)=O)c2)c(F)cc2c1OCCC2=O` (single isomer, unassigned) [Example 105a, (*R)-6-fluoro-8-methyl-7-((3-(methylsulfonyl)phenyl)(pyridin-4-yl)methoxy)chroman-4-one], the IC50 [1] was 200 nM and the IC50 [2] was over 15000 nM.

`Cc1c(O[C@@H](c2ccncc2)c2cccc(S(C)(=O)=O)c2)c(F)cc2c1OCCC2=O` (single isomer, unassigned) [Example 105b, (*S)-6-fluoro-8-methyl-7-((3-(methylsulfonyl)phenyl)(pyridin-4-yl)methoxy)chroman-4-one] was tested, and the IC50 [1] was 190 nM and the IC50 [2] was 6000 nM.

`Cc1cc([C@H](Oc2ccc3c(c2C(C)C)OCCC3=O)c2ccc(C(N)=O)cc2)cc(C)n1` (single isomer, unassigned) [Example 106a, (*R)-4-((2,6-dimethylpyridin-4-yl)((8-isopropyl-4-oxochroman-7-yl)oxy)methyl)benzamide] was tested, and the IC50 [1] was 470 nM and the IC50 [2] was 57 nM.

For `Cc1cc([C@@H](Oc2ccc3c(c2C(C)C)OCCC3=O)c2ccc(C(N)=O)cc2)cc(C)n1` (single isomer, unassigned) [Example 106b, (*S)-4-((2,6-dimethylpyridin-4-yl)((8-isopropyl-4-oxochroman-7-yl)oxy)methyl)benzamide], the IC50 [1] was 740 nM and the IC50 [2] was 370 nM.
